Laboratory results as given in PubChem BioAssay (NCI).
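Cells were grown in 96-well plates and exposed to each compound for 48 hours at five concentrations; endpoints were interpolated linearly between bracketing concentrations, or set to the highest concentration if not reached. TGI is the concentration that stops growth completely.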

How the values were obtained:
Experiment in all cases: growth of human tumour cells (NCI), 48 h
CAKI-1 renal = test system: CAKI-1 renal
SK-MEL-2 melanoma = test system: SK-MEL-2 melanoma
OVCAR-3 ovarian = test system: OVCAR-3 ovarian
HT29 colon = test system: HT29 colon
KM12 colon = test system: KM12 colon
OVCAR-8 ovarian = test system: OVCAR-8 ovarian
SK-MEL-28 melanoma = test system: SK-MEL-28 melanoma
TK-10 renal = test system: TK-10 renal
LOX IMVI melanoma = test system: LOX IMVI melanoma
NCI/ADR-RES ovarian = test system: NCI/ADR-RES ovarian
SK-MEL-5 melanoma = test system: SK-MEL-5 melanoma
HCT-15 colon = test system: HCT-15 colon
SF-295 CNS = test system: SF-295 CNS
EKVX NSCLC = test system: EKVX NSCLC
MCF7 breast = test system: MCF7 breast
SK-OV-3 ovarian = test system: SK-OV-3 ovarian
HCC-2998 colon = test system: HCC-2998 colon
SN12C renal = test system: SN12C renal
SNB-19 CNS = test system: SNB-19 CNS
HOP-62 NSCLC = test system: HOP-62 NSCLC
CCRF-CEM leukemia = test system: CCRF-CEM leukemia
SW-620 colon = test system: SW-620 colon
MOLT-4 leukemia = test system: MOLT-4 leukemia
COLO 205 colon = test system: COLO 205 colon
RPMI-8226 leukemia = test system: RPMI-8226 leukemia
HOP-92 NSCLC = test system: HOP-92 NSCLC
OVCAR-4 ovarian = test system: OVCAR-4 ovarian
M14 melanoma = test system: M14 melanoma
786-0 renal = test system: 786-0 renal
UACC-62 melanoma = test system: UACC-62 melanoma
U251 CNS = test system: U251 CNS
DU-145 prostate = test system: DU-145 prostate
NCI-H460 lung = test system: NCI-H460 lung
ACHN renal = test system: ACHN renal
UACC-257 melanoma = test system: UACC-257 melanoma
HCT-116 colon = test system: HCT-116 colon
MDA-N = test system: MDA-N
OVCAR-5 ovarian = test system: OVCAR-5 ovarian
NCI-H226 lung = test system: NCI-H226 lung
T-47D breast = test system: T-47D breast
MDA-MB-435 = test system: MDA-MB-435
MDA-MB-231 breast = test system: MDA-MB-231 breast
SNB-75 CNS = test system: SNB-75 CNS
NCI-H23 lung = test system: NCI-H23 lung
PC-3 prostate = test system: PC-3 prostate
UO-31 renal = test system: UO-31 renal
A498 renal = test system: A498 renal
SR leukemia = test system: SR leukemia
A549 NSCLC = test system: A549 NSCLC
K-562 leukemia = test system: K-562 leukemia
SF-268 CNS = test system: SF-268 CNS
MALME-3M melanoma = test system: MALME-3M melanoma
NCI-H522 lung = test system: NCI-H522 lung
HL-60(TB) leukemia = test system: HL-60(TB) leukemia
HS 578T breast = test system: HS 578T breast
BT-549 breast = test system: BT-549 breast
IGROV1 ovarian = test system: IGROV1 ovarian

Work on `COCCOCN(C(=O)C1=CCC2(CC1)OCCO2)c1ccccc1I` yielded a TGI (CAKI-1 renal) of over 50 µM, a TGI (SK-MEL-2 melanoma) of over 50 µM and a TGI (OVCAR-3 ovarian) of over 50 µM. It also gave a TGI (HT29 colon) of over 50 µM, a TGI (KM12 colon) of over 50 µM and a TGI (OVCAR-8 ovarian) of over 50 µM. For the same compound, the TGI (SK-MEL-28 melanoma) was over 50 µM, the TGI (TK-10 renal) was over 50 µM and the TGI (LOX IMVI melanoma) was over 50 µM. The TGI (NCI/ADR-RES ovarian) was over 50 µM, the TGI (SK-MEL-5 melanoma) was over 50 µM and the TGI (HCT-15 colon) was over 50 µM. The TGI (SF-295 CNS) was over 50 µM, the TGI (EKVX NSCLC) was over 50 µM and the TGI (MCF7 breast) was over 50 µM. It also gave a TGI (SK-OV-3 ovarian) of over 50 µM, a TGI (HCC-2998 colon) of over 50 µM and a TGI (SN12C renal) of over 50 µM. The TGI (SNB-19 CNS) was over 50 µM, the TGI (HOP-62 NSCLC) was over 50 µM and the TGI (CCRF-CEM leukemia) was over 50 µM. It also gave a TGI (SW-620 colon) of over 50 µM, a TGI (MOLT-4 leukemia) of over 50 µM and a TGI (COLO 205 colon) of over 50 µM. The TGI (RPMI-8226 leukemia) was over 50 µM, the TGI (HOP-92 NSCLC) was over 50 µM and the TGI (OVCAR-4 ovarian) was over 50 µM. For the same compound, the TGI (M14 melanoma) was over 50 µM, the TGI (786-0 renal) was over 50 µM and the TGI (UACC-62 melanoma) was over 50 µM. For the same compound, the TGI (U251 CNS) was over 50 µM, the TGI (DU-145 prostate) was over 50 µM and the TGI (NCI-H460 lung) was over 50 µM. The TGI (ACHN renal) was over 50 µM, the TGI (UACC-257 melanoma) was over 50 µM and the TGI (HCT-116 colon) was over 50 µM. It also gave a TGI (MDA-N) of over 50 µM, a TGI (OVCAR-5 ovarian) of over 50 µM and a TGI (NCI-H226 lung) of over 50 µM. The TGI (T-47D breast) was over 50 µM, the TGI (MDA-MB-435) was over 50 µM and the TGI (MDA-MB-231 breast) was over 50 µM. It also gave a TGI (SNB-75 CNS) of over 50 µM, a TGI (NCI-H23 lung) of over 50 µM and a TGI (PC-3 prostate) of over 50 µM. For the same compound, the TGI (UO-31 renal) was over 50 µM, the TGI (A498 renal) was over 50 µM and the TGI (SR leukemia) was over 50 µM. For the same compound, the TGI (A549 NSCLC) was over 50 µM.

`CC(=O)Oc1c(C)cc(-c2cc(C)c(OC(C)=O)c(C)c2)cc1C` was tested, and the TGI (CAKI-1 renal) was over 100 µM, the TGI (SK-MEL-2 melanoma) was over 100 µM and the TGI (OVCAR-3 ovarian) was over 100 µM. For the same compound, the TGI (HT29 colon) was over 100 µM, the TGI (KM12 colon) was over 100 µM and the TGI (OVCAR-8 ovarian) was over 100 µM. For the same compound, the TGI (SK-MEL-28 melanoma) was over 100 µM, the TGI (TK-10 renal) was 91.6 µM and the TGI (LOX IMVI melanoma) was over 100 µM. For the same compound, the TGI (NCI/ADR-RES ovarian) was over 100 µM, the TGI (SK-MEL-5 melanoma) was over 100 µM and the TGI (HCT-15 colon) was over 100 µM. For the same compound, the TGI (SF-295 CNS) was 93.8 µM, the TGI (EKVX NSCLC) was over 100 µM and the TGI (MCF7 breast) was over 100 µM. The TGI (SK-OV-3 ovarian) was 38.4 µM, the TGI (SN12C renal) was over 100 µM and the TGI (K-562 leukemia) was over 100 µM. The TGI (SNB-19 CNS) was over 100 µM, the TGI (HOP-62 NSCLC) was over 100 µM and the TGI (CCRF-CEM leukemia) was over 100 µM. The TGI (SF-268 CNS) was over 100 µM, the TGI (SW-620 colon) was over 100 µM and the TGI (MALME-3M melanoma) was over 100 µM. It also gave a TGI (MOLT-4 leukemia) of over 100 µM, a TGI (COLO 205 colon) of over 100 µM and a TGI (RPMI-8226 leukemia) of over 100 µM. It also gave a TGI (HOP-92 NSCLC) of over 100 µM, a TGI (OVCAR-4 ovarian) of over 100 µM and a TGI (M14 melanoma) of over 100 µM. For the same compound, the TGI (786-0 renal) was over 100 µM, the TGI (NCI-H522 lung) was 98.2 µM and the TGI (UACC-62 melanoma) was over 100 µM. The TGI (U251 CNS) was 39.5 µM, the TGI (DU-145 prostate) was over 100 µM and the TGI (HL-60(TB) leukemia) was over 100 µM. The TGI (NCI-H460 lung) was over 100 µM, the TGI (ACHN renal) was over 100 µM and the TGI (UACC-257 melanoma) was over 100 µM. It also gave a TGI (HCT-116 colon) of over 100 µM, a TGI (MDA-N) of 25.6 µM and a TGI (OVCAR-5 ovarian) of over 100 µM. For the same compound, the TGI (NCI-H226 lung) was 94.4 µM, the TGI (HS 578T breast) was 60.1 µM and the TGI (MDA-MB-435) was 10.8 µM. The TGI (BT-549 breast) was over 100 µM, the TGI (SNB-75 CNS) was 60.9 µM and the TGI (NCI-H23 lung) was 42.8 µM. It also gave a TGI (PC-3 prostate) of over 100 µM, a TGI (UO-31 renal) of 84.6 µM and a TGI (SR leukemia) of over 100 µM. It also gave a TGI (IGROV1 ovarian) of over 100 µM and a TGI (A549 NSCLC) of over 100 µM.
